Experimental findings from ChEMBL document CHEMBL1909046, “DrugMatrix in vitro pharmacology data” are described below.

In one data set the target is T1, Calcitonin receptor (Homo sapiens, UniProt P30988). Further: in other assays of this panel Not Active means under 50% inhibition at 10 µM.
T1 sequence (P30988 whole entry): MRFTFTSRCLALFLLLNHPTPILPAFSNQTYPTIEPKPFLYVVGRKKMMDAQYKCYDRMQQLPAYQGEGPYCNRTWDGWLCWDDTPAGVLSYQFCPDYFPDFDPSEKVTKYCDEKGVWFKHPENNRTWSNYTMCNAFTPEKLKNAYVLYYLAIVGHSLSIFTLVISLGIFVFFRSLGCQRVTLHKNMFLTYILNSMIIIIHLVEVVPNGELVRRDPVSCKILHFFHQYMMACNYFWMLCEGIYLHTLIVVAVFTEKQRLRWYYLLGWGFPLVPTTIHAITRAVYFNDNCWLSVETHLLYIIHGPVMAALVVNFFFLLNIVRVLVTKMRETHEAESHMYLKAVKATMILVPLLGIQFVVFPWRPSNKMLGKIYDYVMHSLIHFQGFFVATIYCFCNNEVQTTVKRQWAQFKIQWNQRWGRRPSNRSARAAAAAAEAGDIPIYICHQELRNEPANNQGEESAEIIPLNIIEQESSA
It counts as cell membranes, Membrane. The settings on record: t47d.

The nature of data set [1]: DRUGMATRIX: Serotonin (5-Hydroxytryptamine) 5-HT3 radioligand binding (ligand: [3H] GR-65630). The settings on record: hek293; Not Active = under 50% inhibition at 10 µM. It counts as cell membranes, Membrane.
In another data set the target is Vasopressin V1a receptor (Homo sapiens, UniProt P37288). The format is cell membranes, Membrane. The settings on record: hek293. Further: in other assays of this panel Not Active means under 50% inhibition at 10 µM.
The next data set has as its target Melanocortin receptor 4 (Homo sapiens, UniProt P32245). It counts as cell membranes, Membrane. The settings on record: hek293. Further: in other assays of this panel Not Active means under 50% inhibition at 10 µM.
Data set [2] has as its target cGMP-specific 3',5'-cyclic phosphodiesterase (Homo sapiens, UniProt O76074). Briefly: DRUGMATRIX: Phosphodiesterase PDE5 enzyme inhibition (substrate: [3H]cGMP + cGMP). The format is tissue-based, Platelet. The settings on record: platelet; Not Active = under 50% inhibition at 10 µM.
In data set [3] the target is Tyrosine-protein kinase Lck (Homo sapiens, UniProt P06239). Briefly: DRUGMATRIX: Protein Tyrosine Kinase, LCK enzyme inhibition (substrate: Poly(Glu:Tyr)). The format is cell-based, Insect cells. The settings on record: insect cells, Not Active = under 50% inhibition at 10 µM.
In data set [4] the target is T2, 5-hydroxytryptamine receptor 1A (Rattus norvegicus, UniProt P19327). Further: in other assays of this panel Not Active means under 50% inhibition at 10 µM.
T2 sequence (P19327 whole entry): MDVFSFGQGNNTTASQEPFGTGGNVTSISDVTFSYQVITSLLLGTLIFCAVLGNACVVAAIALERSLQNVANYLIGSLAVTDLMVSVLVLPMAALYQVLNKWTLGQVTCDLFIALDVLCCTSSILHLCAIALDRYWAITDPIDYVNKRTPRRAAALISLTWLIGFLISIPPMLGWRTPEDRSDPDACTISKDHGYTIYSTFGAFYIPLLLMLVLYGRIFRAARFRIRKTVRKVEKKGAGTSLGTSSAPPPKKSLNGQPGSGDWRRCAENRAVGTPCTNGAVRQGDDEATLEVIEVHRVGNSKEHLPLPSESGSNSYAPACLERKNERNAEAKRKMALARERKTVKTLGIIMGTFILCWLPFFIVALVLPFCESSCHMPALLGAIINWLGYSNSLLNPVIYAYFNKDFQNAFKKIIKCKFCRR
The format is cell membranes, CHO-K1, Membrane. The settings on record: cho-k1.

A further data set deals with Cytochrome P450 2C19 (Homo sapiens, UniProt P33261).
Data set [5] addresses T3, Cytochrome P450 2D6 (Homo sapiens, UniProt P10635). The settings on record: bti-tn-5b1-4.
In data set [6] the target is T3, Cytochrome P450 2D6. Further: in other assays of this panel Not Active means under 50% inhibition at 10 µM.
In a further data set the target is T4, Androgen receptor (Rattus norvegicus, UniProt P15207). Further: in other assays of this panel Not Active means under 50% inhibition at 10 µM.
T4 sequence (P15207 whole entry): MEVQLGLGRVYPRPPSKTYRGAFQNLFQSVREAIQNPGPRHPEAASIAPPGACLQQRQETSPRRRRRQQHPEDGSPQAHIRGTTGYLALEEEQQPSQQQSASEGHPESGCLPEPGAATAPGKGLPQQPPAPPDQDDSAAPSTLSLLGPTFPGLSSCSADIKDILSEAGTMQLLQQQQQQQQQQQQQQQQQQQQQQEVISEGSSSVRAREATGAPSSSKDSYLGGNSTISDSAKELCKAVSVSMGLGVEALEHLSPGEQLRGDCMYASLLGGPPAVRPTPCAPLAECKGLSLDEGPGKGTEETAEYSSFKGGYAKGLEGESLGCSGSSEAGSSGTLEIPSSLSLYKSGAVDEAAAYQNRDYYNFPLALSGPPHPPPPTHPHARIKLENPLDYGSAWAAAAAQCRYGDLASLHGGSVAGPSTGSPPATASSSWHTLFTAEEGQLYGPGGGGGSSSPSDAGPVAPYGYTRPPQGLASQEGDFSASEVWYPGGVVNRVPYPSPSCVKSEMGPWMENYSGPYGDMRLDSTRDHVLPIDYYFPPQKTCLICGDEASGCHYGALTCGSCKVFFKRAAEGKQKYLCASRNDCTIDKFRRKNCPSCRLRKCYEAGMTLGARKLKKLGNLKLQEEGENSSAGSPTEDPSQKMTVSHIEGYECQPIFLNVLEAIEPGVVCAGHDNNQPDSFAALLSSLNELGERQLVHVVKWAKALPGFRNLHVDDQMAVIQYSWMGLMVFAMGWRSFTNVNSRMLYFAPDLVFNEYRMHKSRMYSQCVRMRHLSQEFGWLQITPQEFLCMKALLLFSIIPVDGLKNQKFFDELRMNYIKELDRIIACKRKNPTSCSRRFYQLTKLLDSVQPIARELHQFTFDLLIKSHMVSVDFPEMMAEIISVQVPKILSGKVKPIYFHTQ

Melanocortin receptor 4, sequence (P32245 whole entry): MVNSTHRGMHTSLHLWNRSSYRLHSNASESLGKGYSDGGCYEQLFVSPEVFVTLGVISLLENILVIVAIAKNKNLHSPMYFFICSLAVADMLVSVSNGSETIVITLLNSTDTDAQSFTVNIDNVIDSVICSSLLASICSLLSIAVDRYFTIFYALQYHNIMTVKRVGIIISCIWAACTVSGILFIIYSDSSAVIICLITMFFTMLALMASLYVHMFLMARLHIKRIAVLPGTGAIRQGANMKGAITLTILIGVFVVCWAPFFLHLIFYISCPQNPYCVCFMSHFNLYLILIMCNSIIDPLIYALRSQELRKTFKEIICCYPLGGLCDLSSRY
Vasopressin V1a receptor, sequence (P37288 whole entry): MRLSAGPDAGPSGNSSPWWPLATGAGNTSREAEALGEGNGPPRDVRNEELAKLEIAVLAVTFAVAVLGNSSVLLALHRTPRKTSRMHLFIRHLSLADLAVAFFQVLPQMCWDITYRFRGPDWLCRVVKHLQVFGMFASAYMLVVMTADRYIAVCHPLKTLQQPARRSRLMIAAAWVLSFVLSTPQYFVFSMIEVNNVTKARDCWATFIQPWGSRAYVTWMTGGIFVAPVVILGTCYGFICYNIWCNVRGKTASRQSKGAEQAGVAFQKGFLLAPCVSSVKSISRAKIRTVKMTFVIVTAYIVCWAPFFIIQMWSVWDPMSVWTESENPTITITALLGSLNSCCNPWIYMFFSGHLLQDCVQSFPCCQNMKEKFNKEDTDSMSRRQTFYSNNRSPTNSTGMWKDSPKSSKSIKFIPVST
T3 sequence (P10635 whole entry): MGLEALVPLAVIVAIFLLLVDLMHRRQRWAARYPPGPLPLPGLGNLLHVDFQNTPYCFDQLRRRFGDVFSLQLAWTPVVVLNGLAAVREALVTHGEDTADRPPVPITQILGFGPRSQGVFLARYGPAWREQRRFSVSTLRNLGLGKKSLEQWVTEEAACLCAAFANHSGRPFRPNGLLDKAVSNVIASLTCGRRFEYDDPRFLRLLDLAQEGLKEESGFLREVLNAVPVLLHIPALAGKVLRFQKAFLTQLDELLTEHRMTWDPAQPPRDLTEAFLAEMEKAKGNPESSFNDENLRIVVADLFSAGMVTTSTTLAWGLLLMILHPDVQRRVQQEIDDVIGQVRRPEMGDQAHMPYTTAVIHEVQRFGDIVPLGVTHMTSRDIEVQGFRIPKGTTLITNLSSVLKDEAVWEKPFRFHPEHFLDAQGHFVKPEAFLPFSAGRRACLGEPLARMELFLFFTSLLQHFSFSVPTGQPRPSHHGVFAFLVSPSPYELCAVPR
Tyrosine-protein kinase Lck, sequence (P06239 whole entry): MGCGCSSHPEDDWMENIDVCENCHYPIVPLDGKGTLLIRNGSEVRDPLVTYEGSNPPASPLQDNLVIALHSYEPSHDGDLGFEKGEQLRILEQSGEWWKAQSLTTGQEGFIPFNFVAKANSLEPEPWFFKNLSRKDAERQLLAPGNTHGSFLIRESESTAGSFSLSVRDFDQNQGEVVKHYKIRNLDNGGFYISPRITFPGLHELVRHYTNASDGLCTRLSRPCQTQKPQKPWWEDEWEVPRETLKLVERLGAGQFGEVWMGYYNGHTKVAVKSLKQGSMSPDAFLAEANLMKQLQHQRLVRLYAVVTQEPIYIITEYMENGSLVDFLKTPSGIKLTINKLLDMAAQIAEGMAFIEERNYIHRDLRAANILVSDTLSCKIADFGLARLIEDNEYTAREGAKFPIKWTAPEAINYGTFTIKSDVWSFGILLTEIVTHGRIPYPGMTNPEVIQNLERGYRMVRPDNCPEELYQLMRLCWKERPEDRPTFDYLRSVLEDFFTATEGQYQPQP
Cytochrome P450 2C19, sequence (P33261 whole entry): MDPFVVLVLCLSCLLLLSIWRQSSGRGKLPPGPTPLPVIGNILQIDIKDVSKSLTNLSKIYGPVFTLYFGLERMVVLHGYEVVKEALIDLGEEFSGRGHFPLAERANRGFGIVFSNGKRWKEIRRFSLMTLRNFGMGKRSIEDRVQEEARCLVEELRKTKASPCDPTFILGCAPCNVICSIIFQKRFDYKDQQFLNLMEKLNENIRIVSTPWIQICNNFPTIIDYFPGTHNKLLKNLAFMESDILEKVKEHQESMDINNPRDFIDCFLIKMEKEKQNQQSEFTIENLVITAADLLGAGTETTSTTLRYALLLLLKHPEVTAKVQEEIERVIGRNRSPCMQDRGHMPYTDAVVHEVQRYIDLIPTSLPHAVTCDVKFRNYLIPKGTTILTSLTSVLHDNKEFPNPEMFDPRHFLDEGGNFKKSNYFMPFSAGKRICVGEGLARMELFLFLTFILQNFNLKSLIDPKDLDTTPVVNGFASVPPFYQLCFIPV

As for `CC(=O)O[C@]1(C(C)=O)CC[C@H]2[C@@H]3C=C(Cl)C4=CC(=O)CC[C@]4(C)[C@H]3CC[C@@]21C` [CHLORMADINONE ACETATE], the IC50 entry (at Calcitonin receptor; in [1]; at Vasopressin V1a receptor; against Melanocortin receptor 4; in [2]; in data set [3]) was “Not Active” each time. The IC50 (in general, the concentration needed to halve the response being measured) was “Not Active” in [4], 3000 nM against Cytochrome P450 2C19 and “Not Active” on Cytochrome P450 2D6 [5]. In addition, the Ki result (in data set [1]; at Cytochrome P450 2D6 [5]) was “Not Active” each time.

Take `CCc1ccc(C(=O)C(C)CN2CCCCC2)cc1` (stereo not given) [EPERISONE]: the half-inhibitory concentration (IC50) result (at Calcitonin receptor; in [1]; on Vasopressin V1a receptor; against Melanocortin receptor 4; in data set [2]; in data set [3]) was “Not Active” in each case. Also, the concentration for half-maximal inhibition (IC50) result in data set [4] is “Not Active”; against Cytochrome P450 2D6 [6], 4900 nM. Also, in data set [1], the Ki result is reported as “Not Active”.

With `O=C1OC2(c3ccc(O)cc3Oc3cc(O)ccc32)c2ccccc21` [FLUORESCEIN], the half-maximal inhibitory concentration (IC50) result (at Calcitonin receptor; in data set [1]; against Vasopressin V1a receptor; against Melanocortin receptor 4; in [2]; in data set [3]) was “Not Active” throughout. Further, the results for the IC50 result (in data set [4]; at Cytochrome P450 2C19; against Cytochrome P450 2D6 [5]) were “Not Active”, 907 nM and “Not Active”, respectively. The Ki result (in data set [1]; on Cytochrome P450 2D6 [5]) was “Not Active” each time.

As to `CNC(=O)Oc1ccc2c(c1)[C@]1(C)CCN(C)[C@@H]1N2C` [PHYSOSTIGMINE], the IC50 result (at Calcitonin receptor; in data set [1]; against Vasopressin V1a receptor; against Melanocortin receptor 4; in data set [2]; in [3]) was “Not Active” each time. Further, the IC50 entry in [4] was “Not Active”; against Cytochrome P450 2D6 [6] it was 200 nM. The Ki result in [1] was “Not Active”.

As for `COc1ccc(CN(CCN(C)C)c2ccccn2)cc1` [PYRILAMINE], the IC50 entry (on Calcitonin receptor; in data set [1]; at Vasopressin V1a receptor; against Melanocortin receptor 4; in [2]; in data set [3]) was “Not Active” in each case. Moreover, the IC50 result was “Not Active” in [4] and 300 nM against Cytochrome P450 2D6 [6]. Also, the Ki entry in data set [1] is “Not Active”.

For CARBOPLATIN, the IC50 entry (on Calcitonin receptor; in data set [1]; against Vasopressin V1a receptor; against Melanocortin receptor 4; in data set [2]; in data set [3]) was “Not Active” throughout. Also, the concentration for half-maximal inhibition (IC50) result (in [4]; at Androgen receptor; against Cytochrome P450 2D6 [5]) was “Not Active” throughout. In addition, the Ki result (on Calcitonin receptor; in data set [1]; at Vasopressin V1a receptor; on Melanocortin receptor 4; in data set [2]; in data set [3]) was “Not Active” throughout. For the same molecule, the Ki entry (in [4]; on Androgen receptor; on Cytochrome P450 2D6 [5]) was “Not Active” throughout.

Turning to CISPLATIN, the IC50 result on Calcitonin receptor is “Not Active”; in [1], “Not Active”; against Vasopressin V1a receptor, “Not Active”; against Melanocortin receptor 4 it was “Not Active”; in [2] it was “Not Active”; in [3] (read-out: IC50) it was 22900 nM. Moreover, the IC50 entry (in data set [4]; on Androgen receptor; on Cytochrome P450 2D6 [5]) was “Not Active” each time. For the same molecule, the Ki entry (on Calcitonin receptor; in [1]; on Vasopressin V1a receptor; at Melanocortin receptor 4; in data set [2]; in data set [4]) was “Not Active” throughout. Moreover, the Ki result at Androgen receptor and on Cytochrome P450 2D6 [5] was “Not Active” in each case.

Consider GOLD SODIUM THIOMALATE, for which the IC50 entry (on Calcitonin receptor; in data set [1]; on Vasopressin V1a receptor; against Melanocortin receptor 4; in data set [2]; in data set [3]) was “Not Active” in each case. Also, the IC50 result (in data set [4]; against Androgen receptor; on Cytochrome P450 2D6 [5]) was “Not Active” each time. The Ki entry (at Calcitonin receptor; in data set [1]; on Vasopressin V1a receptor; at Melanocortin receptor 4; in data set [2]; in [3]) was “Not Active” in each case. The Ki entry (in data set [4]; at Androgen receptor; on Cytochrome P450 2D6 [5]) was “Not Active” in each case.

As for OXALIPLATIN, the half-inhibitory concentration (IC50) result (at Calcitonin receptor; in data set [1]; against Vasopressin V1a receptor; against Melanocortin receptor 4; in [2]; in [3]) was “Not Active” throughout. For the same molecule, the IC50 result (in [4]; against Androgen receptor; at Cytochrome P450 2D6 [5]) was “Not Active” throughout. The Ki result (on Calcitonin receptor; in data set [1]; on Vasopressin V1a receptor; at Melanocortin receptor 4; in data set [2]; in data set [3]) was “Not Active” throughout. Besides, the Ki result (in data set [4]; at Androgen receptor; on Cytochrome P450 2D6 [5]) was “Not Active” throughout.
